Results published in ChEMBL document CHEMBL1201862, “PubChem BioAssay data set” (2004).
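1) Cells in 96-well plates. 2) Compound, 48 h, 5 concentrations. 3) Linear interpolation between surrounding doses. 4) Unreached endpoint = highest concentration. The concentration for 50% growth inhibition is given as GI50.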 The source made the active and inactive calls. Rule as the data show it: active = GI50 up to about 1.1 µM and inactive = higher.

Assays:
Experiment in all cases: NCI-60 cell line screen, 48 h
[1] = system: NCI-H226
[2] = system: SN12C
[3] = system: SF-268
[4] = system: U-251
[5] = system: SF-539
[6] = system: NCI-H522
[7] = system: MCF7
[8] = system: HT-29
[9] = system: OVCAR-4
[10] = system: RPMI-8226
[11] = system: MDA-MB-231
[12] = system: TK-10
[13] = system: SNB-19
[14] = system: NCI-H460
[15] = system: DU-145
[16] = system: OVCAR-5
[17] = system: EKVX
[18] = system: 786-0
[19] = system: M14
[20] = system: A498
[21] = system: SF-295
[22] = system: CAKI-1
[23] = system: Malme-3M
[24] = system: SK-MEL-28
[25] = system: HCT-116
[26] = system: K562
[27] = system: LOX IMVI
[28] = system: OVCAR-3
[29] = system: OVCAR-8
[30] = system: MOLT-4
[31] = system: SK-MEL-5
[32] = system: HCC 2998
[33] = system: HCT-15
[34] = system: Hs-578T
[35] = system: BT-549
[36] = system: HOP-62
[37] = system: ACHN
[38] = system: RXF 393
[39] = system: HOP-92
[40] = system: UO-31
[41] = system: SR
[42] = system: PC-3
[43] = system: KM12
[44] = system: SK-MEL-2
[45] = system: UACC-257
[46] = system: CCRF-CEM
[47] = system: SK-OV-3
[48] = system: UACC-62
[49] = system: IGROV-1
[50] = system: NCI-H23
[51] = system: MDA-N
[52] = system: T47D
[53] = system: COLO 205
[54] = system: SW-620
[55] = system: HL-60
[56] = system: A549
[57] = system: NCI/ADR-RES
[58] = system: MDA-MB-435
[59] = system: SNB-75

Measured: GI50

Cc1ccnc2c1C(=O)C1=C(OC(C)(C)CC1O)C2=O (configuration not stated)
inactive: [1] 6.08 µM | [2] 3.21 µM | [3] 1.79 µM | [4] 3.34 µM | [5] 3.41 µM | [6] 2.9 µM | [7] 2.56 µM | [8] 3.08 µM | [9] 3.01 µM | [10] 4.06 µM | [11] 2.97 µM | [12] 12 µM | [13] 7.38 µM | [14] 2.9 µM | [15] 6.4 µM | [16] 8.26 µM | [17] 5.21 µM | [18] 4.08 µM | [19] 2.62 µM | [20] 15.3 µM | [21] 3.81 µM | [22] 6.01 µM | [23] 1.27 µM | [24] 2.05 µM | [25] 2.82 µM | [26] 2.99 µM | [27] 2.56 µM | [28] 2.67 µM | [29] 2.83 µM | [30] 3.9 µM | [31] 1.17 µM | [32] 3.88 µM | [34] 2.81 µM | [35] 3.36 µM | [36] 3.37 µM | [37] 5.82 µM | [38] 10.7 µM | [39] 10.1 µM | [40] 2.2 µM | [41] 2.03 µM | [42] 2.91 µM | [43] 3.27 µM | [44] 2.88 µM | [45] 1.74 µM | [46] 2.97 µM | [47] 13.7 µM | [48] 1.71 µM | [49] 3.03 µM | [50] 1.76 µM | [51] 1.45 µM | [52] 4.89 µM | [53] 2.41 µM | [54] 2.87 µM | [55] 2.41 µM | [56] 8.77 µM | [57] 2.78 µM | [58] 1.32 µM
2.38 µM: [33]

COc1ccc(-c2[nH]c(-c3ccc(OC)cc3)c(-c3ccccn3)c2-c2ccccn2)cc1
inactive: [1] 85.7 µM | [2] 52.2 µM | [3] > 100 µM | [4] 43.8 µM | [5] 63.1 µM | [7] 42.7 µM | [8] 21.6 µM | [10] 20.2 µM | [11] 89.3 µM | [12] > 100 µM | [13] 68.7 µM | [14] 31.8 µM | [15] > 100 µM | [16] > 100 µM | [17] 72.3 µM | [18] > 100 µM | [19] 48.1 µM | [20] 82 µM | [21] 38.2 µM | [22] > 100 µM | [23] 21.1 µM | [25] > 100 µM | [26] 25.5 µM | [27] 24 µM | [28] 48.9 µM | [29] 50 µM | [30] 34.7 µM | [31] 18.3 µM | [32] 13.6 µM | [34] > 100 µM | [35] 36.2 µM | [37] 74 µM | [38] 31.3 µM | [39] > 100 µM | [40] 33.7 µM | [41] 34.6 µM | [42] 44 µM | [43] 38.2 µM | [45] 40.2 µM | [46] 35.2 µM | [47] > 100 µM | [48] 34.3 µM | [49] 71.8 µM | [50] 42.5 µM | [51] > 100 µM | [52] 31.5 µM | [59] 31.2 µM | [53] 26 µM | [54] 36 µM | [55] 32.4 µM | [56] 40.8 µM | [57] 39.5 µM | [58] 21.7 µM
26.1 µM: [33]

S=C(S)N1CCN(c2cccc(Cl)c2)CC1
inactive: [2] > 100 µM | [3] 76.4 µM | [4] 44.3 µM | [5] > 100 µM | [6] > 100 µM | [7] > 100 µM | [8] > 100 µM | [10] 47.4 µM | [11] 68.9 µM | [12] > 100 µM | [13] > 100 µM | [15] > 100 µM | [16] > 100 µM | [17] > 100 µM | [18] 73.1 µM | [19] > 100 µM | [20] > 100 µM | [21] > 100 µM | [22] 42.1 µM | [23] > 100 µM | [24] 39.8 µM | [25] 41.4 µM | [26] 48.9 µM | [27] 36.7 µM | [28] > 100 µM | [29] > 100 µM | [30] 78.3 µM | [31] 27.9 µM | [32] 52.6 µM | [34] > 100 µM | [35] 86.5 µM | [36] 82.8 µM | [37] > 100 µM | [38] > 100 µM | [39] 80.7 µM | [40] 30.8 µM | [41] 39.4 µM | [42] 66.8 µM | [43] 75.3 µM | [44] 85.5 µM | [45] 85.1 µM | [46] 34.9 µM | [48] > 100 µM | [49] > 100 µM | [50] > 100 µM | [51] > 100 µM | [52] 34.6 µM | [59] 69.3 µM | [53] 76.4 µM | [54] 65.3 µM | [55] 34.9 µM | [56] > 100 µM | [57] > 100 µM | [58] > 100 µM
> 100 µM: [33]
